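Each compound was tested at five concentrations against cells in 96-well plates for 48 hours. TGI: total growth inhibition.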
Columns and labels:
Test in all cases: NCI tumour cell line growth inhibition, 48 h
[1] = system: HS 578T breast
[2] = system: SK-MEL-2 melanoma
[3] = system: HOP-92 NSCLC
[4] = system: NCI/ADR-RES ovarian
[5] = system: NCI-H522 lung
[6] = system: SK-MEL-5 melanoma
[7] = system: HCT-116 colon
[8] = system: TK-10 renal
[9] = system: K-562 leukemia
[10] = system: MDA-N
[11] = system: RPMI-8226 leukemia
[12] = system: OVCAR-4 ovarian
[13] = system: HT29 colon
[14] = system: SN12C renal
[15] = system: SK-OV-3 ovarian
[16] = system: HOP-62 NSCLC
[17] = system: SR leukemia
[18] = system: BT-549 breast
[19] = system: UO-31 renal
[20] = system: COLO 205 colon
[21] = system: NCI-H226 lung
[22] = system: DU-145 prostate
[23] = system: SW-620 colon
[24] = system: MOLT-4 leukemia
[25] = system: OVCAR-3 ovarian
[26] = system: KM12 colon
[27] = system: CCRF-CEM leukemia
[28] = system: LOX IMVI melanoma
[29] = system: SF-539 CNS
[30] = system: IGROV1 ovarian
[31] = system: UACC-257 melanoma
[32] = system: CAKI-1 renal
[33] = system: HCC-2998 colon
[34] = system: NCI-H460 lung
[35] = system: OVCAR-5 ovarian
[36] = system: PC-3 prostate
[37] = system: HL-60(TB) leukemia
[38] = system: MDA-MB-435
[39] = system: SK-MEL-28 melanoma
[40] = system: SNB-19 CNS
[41] = system: OVCAR-8 ovarian
[42] = system: NCI-H23 lung
[43] = system: ACHN renal
[44] = system: T-47D breast
[45] = system: SF-295 CNS
[46] = system: EKVX NSCLC
[47] = system: SF-268 CNS
[48] = system: U251 CNS
[49] = system: HCT-15 colon
[50] = system: A498 renal
[51] = system: M14 melanoma
[52] = system: 786-0 renal
[53] = system: MCF7 breast
[54] = system: MALME-3M melanoma
[55] = system: UACC-62 melanoma
[56] = system: MDA-MB-231 breast
[57] = system: RXF 393 renal
[58] = system: A549 NSCLC

In the case of `COc1ccc2c(c1)CC[C@@H]1C2CC[C@]2(C)OC(=O)CCC12` (stereo partly drawn), the TGI [1] is reported as 60.6 µM, the TGI [2] is reported as 66.5 µM and the TGI [3] is reported as 40.6 µM. It also gave a TGI [4] of 33.4 µM, a TGI [5] of 19.4 µM and a TGI [6] of 29.5 µM. For the same compound, the TGI [7] was 21.6 µM, the TGI [8] was 97.8 µM and the TGI [9] was greater than 100 µM. It also gave a TGI [10] of 62.1 µM, a TGI [11] greater than 100 µM and a TGI [12] of 28.1 µM. For the same compound, the TGI [13] was 59.2 µM, the TGI [14] was 29.1 µM and the TGI [15] was greater than 100 µM. The TGI [16] was 65.3 µM, the TGI [17] was greater than 100 µM and the TGI [18] was 23.6 µM. The TGI [19] was 48.5 µM, the TGI [20] was greater than 100 µM and the TGI [21] was 36.7 µM. The TGI [22] was greater than 100 µM, the TGI [23] was 24.3 µM and the TGI [24] was greater than 100 µM. It also gave a TGI [25] of 31.4 µM, a TGI [26] greater than 100 µM and a TGI [27] greater than 100 µM. It also gave a TGI [28] of 19.4 µM, a TGI [29] of 30.4 µM and a TGI [30] greater than 100 µM. For the same compound, the TGI [31] was 32.1 µM, the TGI [32] was greater than 100 µM and the TGI [33] was greater than 100 µM. The TGI [34] was greater than 100 µM, the TGI [35] was 30.9 µM and the TGI [36] was 61.1 µM. It also gave a TGI [37] greater than 100 µM, a TGI [38] greater than 100 µM and a TGI [39] of 34.3 µM. It also gave a TGI [40] of 38.2 µM, a TGI [41] of 28.4 µM and a TGI [42] of 38.4 µM. The TGI [43] was greater than 100 µM, the TGI [44] was greater than 100 µM and the TGI [45] was 46.1 µM. It also gave a TGI [46] of 21.3 µM, a TGI [47] of 26.6 µM and a TGI [48] of 21 µM. For the same compound, the TGI [49] was greater than 100 µM, the TGI [50] was greater than 100 µM and the TGI [51] was 36 µM. For the same compound, the TGI [52] was 17.7 µM, the TGI [53] was 35.2 µM and the TGI [54] was 36 µM. For the same compound, the TGI [55] was greater than 100 µM, the TGI [56] was 11.5 µM and the TGI [57] was 29 µM. It also gave a TGI [58] greater than 100 µM.

— PubChem BioAssay (NCI)
